According to ChEMBL document CHEMBL5252643, “Jozibrevine D from Ancistrocladus ileboensis, the fifth alkaloid in a series of six possible atropo-diastereomeric naphthylisoquinoline dimers, showing antiparasitic and antileukemic activities” (Bioorg Med Chem Lett, 2023):

How the values were obtained:
[1] = Selectivity ratio of IC50 for human CEM/ADR5000 cells to IC50 for human CCRF-CEM cells; assay type: functional
ADR5000 cell line = assay: Cytotoxicity against multidrug resistant human CEM/ADR5000 cells; assay type: functional, cell-based
CCRF-CEM = assay: Cytotoxicity against human CCRF-CEM cells; assay type: functional, cell-based
Trypanosoma cruzi = assay: Antitrypanosomal activity against Trypanosoma cruzi; assay type: functional, organism-based
[2] = Selectivity index, ratio of IC50 for rat L6 cells to IC50 for Plasmodium falciparum NF54; assay type: toxicity; conditions: L6 cells versus Plasmodium falciparum NF54, read-out: Ratio IC50
[3] = Cytotoxicity against rat L6 cells assessed as reduction in cell viability by resazurin dye based assay; assay type: toxicity
Plasmodium falciparum = assay: Antiplasmodial activity against Plasmodium falciparum NF54; assay type: functional, organism-based
[4] = system: Trypanosoma brucei rhodesiense; assay: Antitrypanosomal activity against Trypanosoma brucei rhodesiense; assay type: functional, organism-based
Leishmania donovani = assay: Antileishmanial activity against Leishmania donovani; assay type: functional, organism-based

Row | IC50 (Trypanosoma cruzi) | IC50 (Plasmodium falciparum) | IC50 [4] | IC50 (Leishmania donovani) | SMILES | Ratio IC50 [1] | IC50 (ADR5000 cell line) | IC50 (CCRF-CEM) | selectivity ratio [2] | IC50 [3]
1 |  |  |  |  | COc1cccc2c(-c3ccc4c(c3O)[C@@H](C)N[C@H](C)C4)c(C)c(-c3c(C)c(-c4ccc5c(c4O)[C@@H](C)N[C@H](C)C5)c4cccc(OC)c4c3O)c(O)c12 (stereo in doubt; 4d) | 1.42 | 7.59 µM | 5.35 µM |  | 
2 | 22.2 µM | 0.137 µM | 0.527 µM | 105 µM | COc1cccc2c(-c3ccc4c(c3O)[C@@H](C)N[C@H](C)C4)c(C)c(-c3c(C)c(-c4ccc5c(c4O)[C@@H](C)N[C@H](C)C5)c4cccc(OC)c4c3O)c(O)c12 (stereo in doubt; 4e) | 1.45 | 16.6 µM | 11.5 µM | 45.4 | 6.22 µM
